The results in this text go back to patent US9927437B2, “Treating neurodegenerative disease” (THE BRIGHAM AND WOMEN'S HOSPITAL, INC., priority 2013, dated 2018).

One data set concerns astrocytes. The experiment in a line: Viability assay, astrocytes. The class given is cell-based, mouse. The note with it: 1 h pre-treatment at indicated concentrations, LPS/IFNγ, 6 h after activation. How it is done:
FIGS. 14a-g. B4GALT6 directly controls astrocyte activation. (a) Cultured astrocytes were pre-treated for 1 h with PDMP (25 μM), LacCer (10 μM), both (LacCer+PDMP), or vehicle control (vehicle), followed by activation with LPS/IFNγ for 6 h, or left un-treated (control, Con). mRNA expression was analyzed 6 h following activation. qPCR analysis of the expression of cc/5, csf2, nos2, il6, H2-Aa, and tlr2 presented relative to gapdh. Statistical analysis by one-way ANOVA, followed by Tukey post-hoc analysis. (b, c) Cultured astrocytes were pre-treated for 1 h with LacCer (b) or PDMP (c), at indicated concentrations, followed by activation with LPS/IFNγ, or left un-treated (control, Con). Cell viability was determined 6 h after activation. […] Astrocytes were then pre-treated for 1 h with PDMP, or vehicle control (vehicle), followed by activation with LPS/IFNγ for 6 h, or left un-treated (control, Con). mRNA expression for H2-Aa, Ccl5 and Cxcl10 was determined; expression is presented as fold induction relative to housekeeping gene (Gapdh). […] (f) NF-κB (P65), GAPDH, and Lamin B expression, in cytoplasmic and nuclear fractions analyzed by western blot. The degree of NF-κB translocation to the nucleus was assessed by the ratio between the expression of P65 in nuclear and cytoplasmic fractions following densitometric quantification on four independent experiments (Right panel). […]

The next data set deals with IRF-1. The experiment in a line: IRF-1 translocation to the nucleus in astrocytes (western blot). The class given is cell-based, mouse. The note with it: primary astrocytes, PDMP 25 μM or LacCer 10 μM, LPS/IFNγ 45 min. Background: In western blotting, separated proteins are transferred to a membrane and probed.
Another data set deals with NF-κB (P65). The experiment in a line: NF-κB translocation to the nucleus in astrocytes (western blot). The class given is cell-based, mouse. The note with it: LPS/IFNγ; for translocation of NF-κB to the nucleus: cultured astrocytes. How it is done: FIGS. 14a-g. B4GALT6 directly controls astrocyte activation. (a) Cultured astrocytes were pre-treated for 1 h with PDMP (25 μM), LacCer (10 μM), both (LacCer+PDMP), or vehicle control (vehicle), followed by activation with LPS/IFNγ for 6 h, or left un-treated (control, Con). mRNA expression was analyzed 6 h following activation. qPCR analysis of the expression of cc/5, csf2, nos2, il6, H2-Aa, and tlr2 presented relative to gapdh. Statistical analysis by one-way ANOVA, followed by Tukey post-hoc analysis. (b, c) Cultured astrocytes were pre-treated for 1 h with LacCer (b) or PDMP (c), at indicated concentrations, followed by activation with LPS/IFNγ, or left un-treated (control, Con). Cell viability was determined 6 h after activation. […] Working concentrations (as in a) are marked in red. (d) The expression of B4galt6 (shB4galt6) or non-targeting shRNA (ShControl) in primary astrocytes was knocked-down using verified shRNA. Astrocytes were then pre-treated for 1 h with PDMP, or vehicle control (vehicle), followed by activation with LPS/IFNγ for 6 h, or left un-treated (control, Con). mRNA expression for H2-Aa, Ccl5 and Cxcl10 was determined; expression is presented as fold induction relative to housekeeping gene (Gapdh). Statistical analysis by one-way ANOVA, followed by Tukey post-hoc analysis (n≥3). […] (f) NF-κB (P65), GAPDH, and Lamin B expression, in cytoplasmic and nuclear fractions analyzed by western blot. The degree of NF-κB translocation to the nucleus was assessed by the ratio between the expression of P65 in nuclear and cytoplasmic fractions following densitometric quantification on four independent experiments (Right panel). […] (g) Expression of CCL-2 or iNOS in IRF-1^+ GFAP^+ astrocytes determined by IF during chronic EAE. […]
Astrocytes were treated as indicated, and total extracts (30 μg of protein), or the nuclear and cytoplasmic subcellular fractionations of cells, were separated by NuPAGE 10% Bis-Tris Gel (Invitrogen), and electroblotted onto supported nitrocellulose membrane. […] Data quantification was done using Image Studio software (Version 3.1.4) (LI-COR, Inc.)

For another data set, the system named is inflammatory monocytes. As to the kind of experiment: Recruitment of inflammatory monocytes to the CNS of EAE NOD mice (flow cytometry). To be noted: PDMP as in FIG. 1k, CD11b+Ly6C^high or CD11b+CD45^high. The class given is in vivo, mouse.
In a further data set the test system is human primary astrocytes. The experiment in a line: Activation of human primary astrocytes with IL-1β or poly(I:C), qPCR. It counts as cell-based. To be noted: PDMP 25 μM; IL-1β 10 ng/ml or Poly (I:C) 10 μg/ml, 6 h. An excerpt: FIG. 6a-d. […] Autopsy samples were obtained from lesions (n=10) or NAWM (n=5) from MS, non-MS CNS inflammatory diseases (NMSCID, including viral encephalitis, Rasmussen's encephalitis and ADEM, n=5) patients and healthy controls (n=6). (a) qPCR analysis of B4GALT5 and B4GALT6 mRNA expression in CNS samples relative to ACTB. (b) IF analysis of B4GALT6, CCL2 and iNOS in GFAP+ astrocytes in NAWM and Lesion of MS patients. (c) LacCer levels determined in CNS samples, relative to protein content. Statistical analysis by one-way ANOVA, followed by Tukey post-hoc analysis. (d) Primary human astrocytes were pre-treated with PDMP (25 μM) or vehicle, and activated with IL-1β (10 ng/ml) or Poly (I:C) (10 μg/ml) or left untreated (control). RNA was harvested 6 h later and the expression of CCL2, CCL5, COX2, IL6, NOS2, and TLR2 was analyzed by qPCR relative to ACTB in 3 independent experiments. Statistical analysis by Student's t-test. Data presented are mean and s.e.m. *P<0.05, **P<0.01 and ***P<0.001.
Human fetal astrocytes were isolated as previously described^57 from human CNS tissue from fetuses at 17-23 wk of gestation obtained from the Human Fetal Tissue Repository (Albert Einstein College of Medicine, Bronx, N.Y.) following Canadian Institutes for Health Research-approved guidelines. Cultures were >90% pure.
(In general: Quantitative PCR measures a nucleic acid by following its amplification.)

A further data set has as its system C57BL/6 mice. As to the kind of experiment: EAE in C57BL/6 mice. The class given is in vivo. The note with it: 10 μg per mouse with MOG35-55 at induction and i.p. every 3 days.
Another data set deals with C8-D30 astrocytes. As to the kind of experiment: In vitro knock-down with shRNA in C8-D30 astrocytes, LPS/IFNγ activation. The class given is cell-based, mouse. The note with it: lentivirus-delivered shRNA.

Entries after “also recorded” stand apart in the source; their conditions may differ.

For the compound `CCCCCCCCCC(=O)N[C@H](CN1CCOCC1)[C@H](O)c1ccccc1` [PDMP, D-threo-1-phenyl-2-decanoylamino-3-morpholino-1-propanol], the astrocyte viability entry in the data set with astrocytes is “did not affect astrocyte viability; also recorded: no significant cells death”. Moreover, the “translocation of IRF-1 to the nucleus” value in the data set with IRF-1 was “interfered with this process”. Moreover, the “translocation of NF-κB to the nucleus” value in the data set on NF-κB (P65) was “decreased translocation of NF-κB to the nucleus”. In the data set with inflammatory monocytes, the “frequency of inflammatory monocytes recruited to the CNS” value is listed as “significantly reduced” and the “total numbers of inflammatory monocytes recruited to the CNS” value was “significantly reduced”. In the data set with human primary astrocytes, the “CCL2, CCL5, COX2, IL6, NOS2 and TLR2 expression” value was “significant decrease”.
As to lactosylceramide [LacCer], the astrocyte viability entry with astrocytes is recorded as “did not affect astrocyte viability; also recorded: no significant cells death”. Moreover, in the data set on C57BL/6 mice, the EAE clinical scores entry was “significant worsening of EAE”. For the same compound, in the data set on IRF-1, the “translocation of IRF-1 to the nucleus” value is given as “enhanced the translocation of IRF-1 to the nucleus”. Besides, the “NF-κB translocation, LacCer added to PDMP” value with NF-κB (P65) (LacCer + PDMP) is on record as “abrogated the inhibition induced by PDMP”. Further, the “translocation of NF-κB to the nucleus” value with NF-κB (P65) is “triggered NF-M3 activation”.
As for “shB4galt6: lentivirus-delivered shRNA against b4galt6 (TRCN0000334278; SEQ ID NO:3) (guide CGATGGACTGAACAATTTATTCTCGAGAATAAATTGTTCAGTCCACG)”, the “up-regulation of h2-Aa, ccl5 and cxcl10 expression” value in the data set with C8-D30 astrocytes is “significantly suppressed the up-regulation”.
